# According to US6969590B2, “Use of a polypeptide for treatment of pruritus in animals” (Zengen, Inc., priority 2001, dated 2005):
# Columns and labels:
# [1] = tested on: edema caused by intradermal injection of human recombinant IL-1β in the mouse ear; test: Ear edema by intradermal recombinant human IL-1β; type: in vivo, BALB/c mice; conditions: for effect of antagonist on anti-inflammatory effect of centrally administered α-MSH (1-13): antagonist administered intraperitoneally
# Procedure: Female BALB/c mice (Simonsen Laboratories, Gilroy, Calif.), 7-8 weeks old, were housed at 23-25° C. in groups not exceeding five animals per cage [28 cm (L)×18 cm (W)×13 cm (H)]. Before the experiments they were acclimatized for not less than 1 week before experimentation to standard lighting and temperature conditions with food and water freely available.
# Mice were anesthetized with 10% pentobarbital sodium solution (1 mg/mouse, 50 mg/ml, Nembutal sodium solution; Abbott Laboratories, North Chicago, Ill.). Baseline ear thickness measurements were taken with a spring-loaded micrometer (Swiss Precision Instruments, Los Angeles, Calif.). Ear thickness was expressed in cubic centimeters and was measured at least twice at each time point. The average thickness of unstimulated ears was […]. Inflammation was induced by intradermal injection of 20 μl of recombinant human IL-1β (1500 U; Genzyme, Cambridge, Mass.) in one ear of each mouse using a 28 gauge needle (Hiltz et al., 1992). Measures of ear thickness were repeated 4 and 6 hr later, while the mice were under sodium pentobarbital anesthesia. Edema was assessed by subtracting baseline measures from 4 and 6 hr readings for each animal. α-MSH (11-13) (1663.9 gm/mol; Peninsula Laboratories, Belmont, Calif.) or α-MSH (11-13) (383.48 gm/mol; Peninsula Laboratories) dissolved in saline was injected intracerebroventricularly (20 μl) using procedures described previously (Lipton et al., 1991; Lipton and Catania, 1993).
# Several agents were administered at the time of ear challenge to pharmacologically block certain receptors: atropine (Sigma Chemical Co.; 150 μg i.p.), a muscarinic receptor blocker that acts on autonomic end-organ receptors, was chosen because of links between inflammation and modulation of pain and the finding that muscarinic antagonists increase pain threshold (Hartvig et al., 1989); phentolamine (Sigma; 150 μg i.p.) an agent that competes for occupancy of α-adrenergic receptors; propranolol (Sigma; 150 μg, i.p.; 30 μg, i.c.v.), a nonspecific competitive antagonist for β-adrenergic receptors.
# (§1) Because of the size of the experiments and the requirement for several shipments of animals over time, several experiments were performed, each with complete treatment and control groups drawn from the same shipment of mice. Omnibus analysis of variance techniques (Dynastat, Washington, D.C.) were used to test overall differences among group means. Tukey's protected t test was used to compare individual means. Probability values of <0.05 were considered significant.
# [2] = tested on: inflammation induced in the hind paw; test: Kappa carrageenan-induced hind paw inflammation, spinal cord intact or transected; type: in vivo, BALB/c mice; conditions: 2.5 mg/mouse IP, mice with spinal transection, 4.5 h after carrageenan
# Procedure: Because surgical dissection of trigeminal structures that innervate the ear of the mouse is very difficult, tests to learn whether descending neural pathways are essential to the anti-inflammatory activity of centrally administered α-MSH peptides were performed in mice with inflammation induced in a hind paw. In these experiments, each animal was anesthetized with pentobarbital sodium solution as above. Baseline footpad thickness of both hind paws was measured with a spring-loaded micrometer (Swiss Precision Instruments, Los Angeles, Calif.). Paw thickness was expressed in units of 10^−3 cm; average thickness of unstimulated paws was 171.5×10^−3 cm across shipments of animals. Kappa carrageenan (Sigma) dissolved in saline (0.05%, 20 μl) was injected (28 gauge allergy test syringe) into one footpad, and saline (20 μl) was injected into the other. For the analyses, the increase in thickness of the control saline-injected paw of each animal was subtracted from that of the carrageenan-injected paw, to eliminate the influence of mechanical injury and volume of the injected fluid. To be certain that mice with severed spinal cords can react to anti-inflammatory agents, prednisolone (2.5 mg/mouse (IP injection)) was administered to 10 mice with spinal transection and inflammation induced by carrageenan. Treatment with the locally acting steroid reduced swelling up to 29% (average, relative to saline controls) at 4.5 h. after carrageenan.
# However, a standardized crushing of lumbar vertebrae with a hemostat was effective in severing the cord; no deaths were caused by this treatment. […] The experiments were limited to 4.5 h to reduce problems of bowel and bladder dysfunction. Immediately after the 4.5 h measurements all mice were killed with an overdose of sodium pentobarbital.
# as §1
# C. albicans [3] = test: C. albicans colony forming units (candidacidal activity); type: cell-based; conditions: for relative potency in reducing C. albicans viability: 10^−4M melanocortin peptides; for reduction of C. albicans CFU at higher concentrations: up to 10^−4M
# Procedure: C. albicans (1×10^6/ml in HBSS) was incubated in the presence or absence or α-MSH (1-13) or α-MSH (11-13) at concentrations in the range of 10^−15 M to 10^−6 M for 2 hours at 37° C. Cells were then washed in cold distilled water and diluted with HBSS to a concentration of 100 organisms/ml. One-ml aliquots were dispensed on blood agar plates and incubated for 48 hours at 37° C. Organism viability was estimated from the number of colonies formed. In subsequent experiments using familiar procedures we compared activity of α-MSH (4-10), α-MSH (6-13), α-MSH (11-13), ACTH (1-39), (18-39) and fluconazole, the latter an established antifungal agent. Melanocortin peptides and fluconazole were tested in concentrations of 10^−6 M to 10^−4 M. There were at least six replicates for each concentration of peptide.
# [4] = tested on: inflammation induced in the ear by picryl chloride; test: Picryl chloride-induced ear swelling; type: in vivo, BALB/C mice; conditions: for overall effect on ear inflammation (ANOVA): 10-80 μg IP, 3 and 6 h
# Procedure: Female BALB/C mice (Simmons Laboratories), 7 weeks old, were housed at 23-25° C. in groups of no more than 5 per cage [28 cm (L)×18 cm (W)×13 cm (H)]. They were allowed to acclimatize to standard lighting and temperature conditions for at least 1 week, with food and water available ad lib, before the experiment began. Five to ten animals were randomly assigned to each treatment group each test day, and all experiments were repeated at least twice to confirm reproducibility. To reduce error due to slight differences in responses to the irritant of animals from different shipments, tests of each agent were performed as separate experiments in which experimental and control animals were drawn from the same shipment.
# In the experiments each animal was anesthetized with 1 mg of pentobarbital sodium solution (50 mg/kg, Nembutal, Abbott Laboratories, Abbott park, Ill.). Baseline ear thickness was measured for both ears with a spring-loaded micrometer (Swiss Precision Instruments, Los Angeles, Calif.). Ear thickness was expressed in units of 10^−3 cm; the average thickness of unstimulated ears was approximately 25-30×10^−3 cm. After baseline measurements were taken, one of six solutions was injected IP. Control animals received 0.2 ml of sterile saline, and experimental animals received Ac-α-MSH (11-13)-NH2, i.e., Ac-Lys-Pro-Val-NH2), Ac[D-Lys^11] α-MSH (11-13)-NH2, Ac[D-Pro^12] α-MSH (11-13)-NH2, Ac[D-Val^13] α-MSH (11-13)-NH2 or Ac-[D-Lys^11, D-Val^13] α-MSH (11-13)-NH2 in the same volume of saline. […] The doses of the tripeptides were 10 μg ([…]), 20 μg ([…]), 40 μg (1.04×10^−7 M), and 80 μg (2.08×10^−7 M). Immediately after saline or α-MSH injection, a micropipette was used to coat both sides of each ear with 10 μl (40 μl per mouse) of a 0.5% picryl chloride (Polysciences, Warrington, Pa.) solution in acetone.
# Ear thickness was remeasured 3 and 6 h after picryl chloride application. Swelling was determined by subtracting baseline thickness from the measurements for each ear at 3 and 6 h. The differences for both ears were then averaged for the final analysis.
# Repeated-measure ANOVA techniques were used to determine if there was an overall difference among group data for each peptide tested in separate experiments. In those cases in which the ANOVA yielded significant results, Dunnett's test was then used to compare the effects of peptide doses with control (saline) data for each of the two time periods, 3 and 6 h.
# C. albicans [5] = test: Horse serum-induced germ tube formation of C. albicans; type: cell-based; conditions: 10^−6M, 60 minutes at 37° C.
# Procedure: C. albicans from stationary phase cultures were washed twice with distilled water and suspended in HBSS to a final concentration of 2×10^6/ml. Hyphal growth was induced by addition of 10% inactivated horse serum (GIBCO/BRL, Great Britain) to yeast incubated for 45 minutes at 37° C. with continuous shaking. Horse serum was removed by washing cells twice with HBSS and incubation was continued for 60 minutes at 37° C. in the presence of α-MSH (1-13), α-MSH (6-13) or α-MSH (11-13) at a concentration of 10^−6M with continuous shaking. The percentage of filamentous cells was evaluated under a light microscope with the aid of hemocytometer. Experiments were run in triplicate and at least 200 cells were scored. Photomicrographs were taken with an MC100 camera attached to an Axioskop Zeiss microscope.
molecule,measurement,setting,value
CC(C)NCC(O)COc1ccc(CC(N)=O)cc1 (centres unmarked) [atenolol],effect of antagonist on anti-inflammatory effect of centrally administered α-MSH (1-13),[1],little inhibition
CN1[C@@H]2CC[C@H]1C[C@@H](OC(=O)C(CO)c1ccccc1)C2 (some centres unmarked) [atropine],effect of antagonist on anti-inflammatory effect of centrally administered α-MSH (1-13),[1],did not alter
COc1ccc(OC)c(C(O)C(C)NC(C)(C)C)c1 (centres unmarked) [butoxamine],effect of antagonist on anti-inflammatory effect of centrally administered α-MSH (1-13),[1],significantly reduced
Cc1ccc(N(CC2=NCCN2)c2cccc(O)c2)cc1 [phentolamine],effect of antagonist on anti-inflammatory effect of centrally administered α-MSH (1-13),[1],did not alter
"C[C@]12C=CC(=O)C=C1CC[C@@H]1[C@@H]2[C@@H](O)C[C@@]2(C)[C@H]1CC[C@]2(O)C(=O)CO [prednisolone, reference compound]",reduction of swelling relative to saline controls (average),[2],up to 29%
CC(C)NCC(O)COc1cccc2ccccc12 (centres unmarked) [propranolol],effect of antagonist on anti-inflammatory effect of centrally administered α-MSH (1-13),[1],inhibited
same,effect of antagonist on anti-inflammatory influence of α-MSH (1-13),[1]; antagonist injected centrally,little effect
"ACTH (1-39): adrenocortitrophic hormone peptide (1-39) (SYSMEHFRWGKPVGKKRRPVKVYPNGAEDESAEAFPLEF; Corticotropin; UniProt P01189 138-176, looked up) [reference compound]",relative potency in reducing C. albicans viability,C. albicans [3],did not reduce C. albicans viability
same,reduction of C. albicans CFU at higher concentrations,C. albicans [3],ineffective
"ACTH fragment (18-39): ACTH fragment (18-39) (RPVKVYPNGAEDESAEAFPLEF; Corticotropin; UniProt P01189 155-176, looked up, fragment) [reference compound]",relative potency in reducing C. albicans viability,C. albicans [3],did not reduce C. albicans viability
same,reduction of C. albicans CFU at higher concentrations,C. albicans [3],ineffective
"Ac-[D-Lys^11, D-Val^13] α-MSH (11-13)-NH2 [Ac-[D-Lys^11, D-Val^13]α-MSH(11-13)-NH2]",% Inhibition of swelling,"[4]; 10 μg IP, 3 h",22%
same,% Inhibition of swelling,"[4]; 10 μg IP, 6 h",22%
same,% Inhibition of swelling,"[4]; 20 μg IP, 3 h",55%
same,% Inhibition of swelling,"[4]; 20 μg IP, 6 h",46%
same,% Inhibition of swelling,"[4]; 40 μg IP, 3 h",42%
same,% Inhibition of swelling,"[4]; 40 μg IP, 6 h",41%
same,% Inhibition of swelling,"[4]; 80 μg IP, 3 h",40%
same,% Inhibition of swelling,"[4]; 80 μg IP, 6 h",44%
same,overall effect on ear inflammation (ANOVA),[4],significant overall reduction in inflammation
Ac-[D-Pro^12]α-MSH (11-13)-NH2,% Inhibition of swelling,"[4]; 10 μg IP, 3 h",4%
same,% Inhibition of swelling,"[4]; 10 μg IP, 6 h",8%
same,% Inhibition of swelling,"[4]; 20 μg IP, 3 h",11%
same,% Inhibition of swelling,"[4]; 20 μg IP, 6 h",5%
same,% Inhibition of swelling,"[4]; 40 μg IP, 3 h",10%
same,% Inhibition of swelling,"[4]; 40 μg IP, 6 h",8%
same,% Inhibition of swelling,"[4]; 80 μg IP, 3 h",8%
same,% Inhibition of swelling,"[4]; 80 μg IP, 6 h",6%
same,overall effect on ear inflammation (ANOVA),[4],no significant effect on inflammation
Ac[D-Val^13] α-MSH (11-13)-NH2,% Inhibition of swelling,"[4]; 10 μg IP, 3 h",24%
same,% Inhibition of swelling,"[4]; 10 μg IP, 6 h",23%
same,% Inhibition of swelling,"[4]; 20 μg IP, 3 h",48%
same,% Inhibition of swelling,"[4]; 20 μg IP, 6 h",54%
same,% Inhibition of swelling,"[4]; 40 μg IP, 3 h",39%
same,% Inhibition of swelling,"[4]; 40 μg IP, 6 h",45%
same,% Inhibition of swelling,"[4]; 80 μg IP, 3 h",41%
same,% Inhibition of swelling,"[4]; 80 μg IP, 6 h",29%
same,overall effect on ear inflammation (ANOVA),[4],marked inhibitory influence
"HFRWGKPV (Designed polypeptide with anti-inflammatory, anti-bacterial, anti-fungal and antipyretic properties.) [α-MSH (6-13)]",relative potency in reducing C. albicans viability,C. albicans [3],the most effective
same,reduction in the number of filamentous cells (inhibition of germination),C. albicans [5],approximately 50%
MEHFRWG [α-MSH (4-10)],inhibition of CFU,C. albicans [3]; 10^−4M peptide as printed,approximately 50%
